Laboratory results: article PMC5750648, “Study of Statin- and Loratadine-Induced Muscle Pain Mechanisms Using Human Skeletal Muscle Cells” (Pharmaceutics, 2017)
“Also recorded” adds a separate entry of the source. Where a name gives a salt, the structure may show the parent alone.

Columns and labels:
[1] = set-up: method as in PMID 16453090; details: Primo study; cited from earlier work
[2] = tested on: L-lactic acid influx transport in SkMC; assay: Kinetic parameters of L-lactic acid influx transport in SkMC; assay type: cell-based, human
Description: After differentiation, and before the beginning of the transport experiments, cells were washed, and the medium replaced with HEPES (pH 7.4; 1 mL) buffer. Transport assays, including the pre-incubation period in HEPES, were performed at 37 °C. Assay conditions were previously optimized by standard incubations with L-lactic acid (e.g., incubation times). […] Assessment of influx transport. […] The suspension was passed through 27½ G needle 3-times. […] L-lactic acid concentrations.

[3] = tested on: SkMC; assay: Intracellular concentrations of statins and loratadine at the end of inhibition assays (HPLC-UV)
Description: Instruments used consisted of a SpectraSystem P4000 pump, a SpectraSystem AS3000 autosampler, a Finnigan SpectraSystem UV6000 ultraviolet detector and a SpectraSystem SN4000 System Controller from Thermo Electron Corporation (San Jose, CA, USA). An Agilent Zorbax Column, Eclipse XDB-C8, 4.6 mm × 150 mm (Agilent, Santa Clara, CA, USA) was used at a temperature of 40 °C. An isocratic mobile phase contained 10 mM ammonium formate pH 3 and acetonitrile with varying proportions, at a flow rate of 1.0 mL/min. Details for mobile phase proportions, internal standards and monitored UV wavelengths are listed in Supplementary Table S1.
After the final incubation, cells were washed twice with PBS 10% methanol and once with PBS alone. The cells were lysed with methanol containing appropriate internal standards for the compounds of interest, then transferred and centrifuged for 10 min at room temperature. The supernatant was transferred to a culture borosilicate glass tube, evaporated and reconstituted in 100 µL of 10 mM ammonium formate pH 3 and acetonitrile (50:50 v/v). A volume of 20 µL per sample was injected. The ChromQuest Version 4.2.34 software was used for data acquisition.

[4] = tested on: MCT-mediated efflux transport of L-lactic acid (MCT1 and 4); assay: Inhibition of L-lactic acid efflux in SkMC (intracellular [14C] L-lactic acid accumulation); assay type: cell-based, human; details: for Inhibitory effect on L-lactic acid efflux (in words): 0.25 to 300 µM
Description: Assessment of efflux transport. A similar approach was used to measure efflux transport of L-lactic acid. For these experiments, distribution equilibrium of L-lactic acid was reached by adding MES or HEPES (pH 7.0 or 7.4; 1 mL) containing 6 mM [^14C] L-lactic acid (0.2 µCi/mL). After 10 min (to allow L-lactic acid to reach equilibrium), MES or HEPES buffer containing [^14C] L-lactic acid was replaced by L-lactic acid-free buffer for 2.5 min. Transport was stopped by placing culture plates on ice, rapidly aspirating the media and cells were washed 3-times with ice-cold HEPES buffer. Cellular radioactivity levels were determined as previously described in the Method section (Assessment of influx transport).
At the beginning of the experiment (t = 0), medium was replaced by HEPES (pH 7.4; 1 mL) buffer to wash cells. After removing the wash buffer, cells were loaded with [^14C] L-lactic acid (6 mM, 0.2 µCi/mL) in MES or HEPES buffer (pH 7.0 or pH 7.4). Briefly, following pre-incubation of cells in buffer containing [^14C] L-lactic acid for 10 min (to allow L-lactic acid to reach equilibrium), the buffer was replaced by a buffer containing [^14C] L-lactic acid and the potential inhibitor. This mixture was incubated for an additional 3 min in order to allow diffusion of the inhibitor in the cells without perturbing L-lactic acid equilibrium. Then, cells were washed once rapidly with buffer containing the tested inhibitors or vehicle, but without L-lactic acid. In the final step, the tested inhibitors or vehicle were added to the L-lactic acid-free buffer and incubated for 2.5 min as described previously for the assessment of the efflux transport. Culture plates were placed on ice to stop the reaction. Inhibition of L-lactic acid efflux was determined by measuring intracellular [^14C] L-lactic acid concentration.

[5] = tested on: MCT-mediated efflux transport of L-lactic acid (MCT1 and 4); assay: L-lactic acid efflux inhibition after six-day pretreatment of SkMC; assay type: cell-based, human; details: inhibitor 300 µM
Description: At the beginning of the experiment (t = 0), medium was replaced by HEPES (pH 7.4; 1 mL) buffer to wash cells. […] Then, cells were washed once rapidly with buffer containing the tested inhibitors or vehicle, but without L-lactic acid. […] Culture plates were placed on ice to stop the reaction. Inhibition of L-lactic acid efflux was determined by measuring intracellular [^14C] L-lactic acid concentration.

In the case of CC(C)c1c(C(=O)Nc2ccccc2)c(-c2ccccc2)c(-c2ccc(F)cc2)n1CC[C@@H](O)C[C@@H](O)CC(=O)O [Atorvastatin], the “Rate of patients experiencing muscular discomfort” value [1] is given as 14.9%.

With C[C@H](O)C(=O)O [L-lactic acid, L-lactic acid sodium salt] the Km ([2]; pH 7.0) was 17 mM, the “Vmax of L-lactic acid influx transport” value ([2]; pH 7.0) was 90 nmol/min/mg protein and the Km ([2]; pH 7.4) was 23 mM. The “Vmax of L-lactic acid influx transport” value ([2]; pH 7.4) was 82 nmol/min/mg protein.

In the case of CCOC(=O)N1CCC(=C2c3ccc(Cl)cc3CCc3cccnc32)CC1 [Loratadine], the “Effect of pH on intracellular accumulation of the drug” value ([3]; SkMC, pH 7.0 compared to pH 7.4) is reported as “did not affect”.

In the case of CC(C)c1nc(N(C)S(C)(=O)=O)nc(-c2ccc(F)cc2)c1/C=C/[C@@H](O)C[C@@H](O)CC(=O)O [rosuvastatin], the “Inhibitory effect on L-lactic acid efflux (in words)” value ([4]; SkMC) is reported as “No L-lactic acid efflux inhibition; also recorded: No significant inhibitory effect”, the “Inhibitory effect on L-lactic acid transport (in words)” value ([4]; SkMC, pH 7.0) is reported as “no significant inhibitory effect” and the “Uptake of the drug in SkMC” value [3] is reported as “did not have a significant uptake”.

For CCC(C)(C)C(=O)O[C@H]1C[C@@H](C)C=C2C=C[C@H](C)[C@H](CC[C@@H](O)C[C@@H](O)CC(=O)O)[C@H]21 [Simvastatin hydroxy acid, simvastatin hydroxyl acid ammonium salt], the “Intracellular lactic acid increase” value ([4]; SkMC (abstract)) was 25–35%, the “Maximal increase of intracellular L-lactic acid” value ([4]; SkMC, 300 µM inhibitor) was 35% and the “Inhibitory effect on L-lactic acid efflux (in words)” value ([4]; SkMC) was “weak inhibitory potency”. For the same compound, the “Intracellular L-Lactic Acid Increase (%)” value ([5]; no pretreatment (Control), pH 7.4) was 65%, the “Intracellular L-Lactic Acid Increase (%)” value ([5]; six-day pretreatment 0.033 µM, pH 7.0) was 103% and the “Intracellular L-Lactic Acid Increase (%)” value ([5]; six-day pretreatment 0.033 µM, pH 7.4) was 51%. For the same compound, the “Intracellular L-Lactic Acid Increase (%)” value ([5]; six-day pretreatment 0.1 µM, pH 7.0) was 31% and the “Intracellular L-Lactic Acid Increase (%)” value ([5]; six-day pretreatment 0.1 µM, pH 7.4) was 35%.

For O=C(CCc1ccc(O)cc1)c1c(O)cc(O)cc1O [phloretin], the “Maximal intracellular L-lactic acid augmentation” value ([4]; SkMC, pH 7.0, 1 to 300 µM tested) was 2.1 fold and the “Maximal intracellular L-lactic acid augmentation” value ([4]; SkMC, pH 7.4, 1 to 300 µM tested) was 2.2 fold.
